Measurements: patent publication US9718809B2, “Bisarylsulfonamides useful in the treatment of inflammation and cancer” (Kancera AB, priority 2011, dated 2017)
pIC50: −log10 of the molar value. Structures can show the parent of a compound that is named as a salt.

Tested on: F-2,6-P2 in SW620 cells
Test: Quantification of F-2,6-P2 (Van Schaftingen coupled enzyme assay) in SW620 cells
Assay type: cell-based
Conditions: Homo sapiens, SW-620, read-out: IC50 based on quantification of F-2,6-P2
Source text: A method for quantification of F-2,6-P2 has been described by Van Schaftingen et al. (1982) Eur. J. Biochem. 129, 191-5. This sensitive assay is based on the potent activation of pyrophosphate dependent phosphofructokinase-1 (PPi-PFK) from potato tubers by F-2,6-P2. The use of a series of coupled enzymes leads to a consumption of NADH (nicotinamide adenine dinucleotide) that can be followed spectrophotometrically (an updated protocol is available in Van Schaftingen, (1984) Methods of Enzymatic Analysis (Bergmeyer, H. U., ed.), 3rd edn., vol. 6, pp. 335-341, Verlag Chemie, Weinheim). A protocol for measurements in 96-well microtiter plate format is also available (Bruni et al., (1989) Anal. Biochem. 178, 324-6).
The levels of F-2,6-P2 have been determined using the van Shaftingen assay as described in the protocol below, in six different cancer cell lines endogenously expressing varying levels of the different isoforms of PFK-2/BPase-2 (MCF-7, PANC-1, NUGC-3, SW480, SW620 and MIA PaCa-2). All reagents were purchased from commercial sources or prepared in-house.
Cell line E (SW620, human colorectal adenocarcinoma): SW620 cells (ATCC-CCL-227), lot. no. 58483168. Cells were seeded at a concentration of ˜350 000 cells/mL in 100 μL growth medium (˜35 000 cells/well).
Growth medium (cell lines B-F): Dulbecco's Modified Eagle's Medium, DMEM, VWR, LONZ12-604F; 10% FBS, Invitrogen, 10270-106. […]
COCC(C)OC(=O)c1ccc(NS(=O)(=O)c2cc(Cl)c(Cl)s2)cc1O (centres unmarked) [Example 194, 2-Methoxy-1-methylethyl 4-{[(4,5-dichlorothiophen-2-yl)sulfonyl]amino}-2-hydroxybenzoate] showed a pIC50 of 6.10.
Work on COC(=O)c1ccc(NS(=O)(=O)c2cc(-c3ccccc3O)c(Cl)s2)cc1O [Example 156, Methyl 4-({[5-chloro-4-(2-hydroxyphenyl)-2-thienyl]sulfonyl}amino)-2-hydroxybenzoate] yielded a pIC50 of 5.55.

Tested on: NUGC-3 cells
Test: Inhibition of cancer cell proliferation, total cellular protein (Sulphorhodamine B), NUGC-3
Conditions: Homo sapiens, 72 h, read-out: IC50 based on quantitation of total cellular protein after treatment
Method: (§1) To assess the antiproliferative response elicited by the compounds of the present invention in different tumour cell lines, total cellular protein in samples was quantified using the Sulphorhodamine B kit, TOX6, (Sigma-Aldrich). The protocol is based on quantitation of total cellular protein after indicated treatments and incubation times using the Sulphorhodamine B kit, TOX6, (Sigma-Aldrich).
(§2) Briefly, after protein precipitation using TCA according to the manufacturer's instructions, the sulphorhodamine dye (80 μL/well) was added to the air-dried wells. After 20 min incubation at room temperature, the dye was discarded and the samples were gently rinsed with 1% HOAc until clear. After air drying, bound dye was solubilised in 200 μL 10 mM Tris base, and the absorbance of dye was measured at 565 nm. To quantify growth, samples were collected also at t=0 h, and the resulting absorbance was set to 100%.
(§3) For experiments studying the effect of the herein described compounds per se, i.e. without combination treatment with cisplatin, the above protocol was applied with the following modifications. See Table II for details for each specific cell line. Briefly, cells were plated at a density of 6,000 cells/well 96-well Corning Costar tissue culture plates (CLS3596, Sigma-Aldrich) in assay medium and allowed to attach over night at 37° C., 5% CO2. Day 2 the compounds were diluted ½ in dose response curve mode in 100% DMSO, required volume was transferred to assay medium to a maximal DMSO concentration of 0.1%. The diluted compounds were added to the cells with a starting dose response concentration of 100 μM. All compounds were tested in duplicate plates.
as §2, with “After” for “Briefly, after”, “sulforhodamine B” for “sulphorhodamine”, “(50” for “(80”, “100” for “200”, “530 nm and a background absorbance (subtract from the measurement at 530 nm) at 690” for “565”, “h.” for “h, and the resulting absorbance was set to 100%.”
For COC(=O)c1ccc(NS(=O)(=O)c2cccc(-c3cc(F)ccc3O)c2)cc1O [Example 134, Methyl 4-{[(5′-fluoro-2′-hydroxybiphenyl-3-yl)sulfonyl]amino}-2-hydroxybenzoate], the pIC50 was 4.89.
Work on O=C(OCCOc1ccccc1)c1ccc(NS(=O)(=O)c2cccc(-c3cc(F)ccc3O)c2)cc1O [Example 203, 2-Phenoxyethyl 4-{[(5′-fluoro-2′-hydroxybiphenyl-3-yl)sulfonyl]amino}-2-hydroxybenzoate] yielded a pIC50 of 5.17.
For CCC(COC)OC(=O)c1ccc(NS(=O)(=O)c2cc(Cl)cc(Cl)c2)cc1O (centres unmarked) [Example 189, 1-(Methoxymethyl)propyl 4-{[(3,5-dichlorophenyl)sulfonyl]amino}-2-hydroxybenzoate], the pIC50 was 4.79.
COC(=O)c1ccc(NS(=O)(=O)c2cc(-c3cc(F)ccc3F)c(Cl)s2)cc1O [Example 45, Methyl 4-({[5-chloro-4-(2,5-difluorophenyl)-2-thienyl]sulfonyl}amino)-2-hydroxybenzoate] gave a pIC50 of 4.65.

Tested on: PANC-1 cells
Test: Inhibition of cancer cell proliferation, total cellular protein (Sulphorhodamine B), PANC-1
Conditions: Homo sapiens, 72 h, read-out: IC50 based on quantitation of total cellular protein after treatment
Method: as §1, §2, §3
as §2, with “After” for “Briefly, after”, “sulforhodamine B” for “sulphorhodamine”, “(50” for “(80”, “100” for “200”, “530 nm and a background absorbance (subtract from the measurement at 530 nm) at 690” for “565”, “h.” for “h, and the resulting absorbance was set to 100%.”
In the case of CC(C)OC(=O)c1ccc(NS(=O)(=O)c2cc(Cl)c(Cl)s2)cc1O [Example 68, Isopropyl 4-{[(4,5-dichloro-2-thienyl)sulfonyl]amino}-2-hydroxybenzoate], the pIC50 was 4.81.
For O=C(OCCCN1CCOCC1)c1ccc(NS(=O)(=O)c2c(Cl)sc(Cl)c2Br)cc1O [Example 199, 3-Morpholin-4-ylpropyl 4-{[(4-bromo-2,5-dichlorothiophen-3-yl)sulfonyl]amino}-2-hydroxybenzoate trifluoroacetate], the pIC50 was 4.69.
For O=C(OCCCN1CCOCC1)c1ccc(NS(=O)(=O)c2cc(-c3ccc4c(c3)CCO4)c(Cl)s2)cc1O [Example 163, 3-Morpholin-4-ylpropyl 4-({[5-chloro-4-(2,3-dihydro-1-benzofuran-5-yl)-2-thienyl]sulfonyl}amino)-2-hydroxybenzoate trifluoroacetate], the pIC50 was 4.52.
For COC(=O)c1ccc(NS(=O)(=O)c2cc(-c3ccccc3O)c(Cl)s2)cc1O [Example 156, Methyl 4-({[5-chloro-4-(2-hydroxyphenyl)-2-thienyl]sulfonyl}amino)-2-hydroxybenzoate], the pIC50 was 4.79.

Tested on: SW480 cells
Test: Inhibition of cancer cell proliferation, total cellular protein (Sulphorhodamine B), SW480
Conditions: Homo sapiens, 72 h, read-out: IC50 based on quantitation of total cellular protein after treatment
Method: as §1, §2, §3
After protein precipitation using TCA according to the manufacturer's instructions, the sulforhodamine B dye (50 μL/well) was added to the air-dried wells. […] After air drying, bound dye was solubilised in 100 μL 10 mM Tris base, and the absorbance of dye was measured at 530 nm and a background absorbance (subtract from the measurement at 530 nm) at 690 nm. To quantify growth, samples were collected also at t=0 h.
Molecule COCCOC(=O)c1ccc(NS(=O)(=O)c2cccc(-c3cc(F)ccc3F)c2)cc1O [Example 172, 2-Methoxyethyl 4-{[(2′,5′-difluorobiphenyl-3-yl)sulfonyl]amino}-2-hydroxybenzoate] has a pIC50 of 4.80.
CCC(COC)OC(=O)c1ccc(NS(=O)(=O)c2cc(Cl)c(Cl)s2)cc1O (centres unmarked) [Example 195, 1-(Methoxymethyl)propyl 4-{[(4,5-dichlorothiophen-2-yl)sulfonyl]amino}-2-hydroxybenzoate] gave a pIC50 of 4.69.
Work on COCC(C)OC(=O)c1ccc(NS(=O)(=O)c2cc(Cl)cc(Cl)c2)cc1O (centres unmarked) [Example 192, 2-Methoxy-1-methylethyl 4-{[(3,5-dichlorophenyl)sulfonyl]amino}-2-hydroxybenzoate] yielded a pIC50 of 4.65.

Tested on: not listed separately
Test: Cell toxicity, CellTiter-Blue Cell Viability Assay
Conditions: human, MIA PaCa-2 pancreatic carcinoma cells, MIA PaCa-2 cells, 72 h culture, read-out: IC50 based on cell toxicity
Method: The CellTiter-Blue® Cell Viability Assay provides a homogeneous, fluorometric method for estimating the number of viable cells present in multi-well plates. It uses the indicator dye resazurin to measure the metabolic capacity of cells. Viable cells retain the ability to reduce resazurin into resorufin, which is highly fluorescent.
Stock solutions (10 or 100 mM in DMSO) of compounds were serially diluted 1:2 in 11 concentrations. 25 nL/well (100 mM stock) or 50 nL/well (10 mM stock) were acoustically dispensed in assay plates with EDC acoustic dispenser. Final starting conc. in assay was 20 μM (0.2% DMSO) or 100 μM (0.1% DMSO) for test compounds.
Cells (MIA-PaCa-2; pancreatic carcinoma) were seeded in assay plates (384-well black/clear, Greiner #781091) pre-dispensed with compounds, 25 μL/well, and cultured for 72 h. The cell concentration was 750 cells/well. After 72 h culture, Celltiter Blue reagent was added (5 μL/well) and the plates were incubated for 2 h. The plates were read in an Envision fluorescence reader with Ex544 nm/Em590 nm. Results were calculated as % cytotoxicity compared to background (cells treated with 0.2% DMSO).
For CCC(COC(=O)c1ccc(NS(=O)(=O)c2cccc(-c3cc(F)ccc3O)c2)cc1O)OC (centres unmarked) [Example 182, 2-Methoxybutyl 4-{[(5′-fluoro-2′-hydroxybiphenyl-3-yl)sulfonyl]amino}-2-hydroxybenzoate], the IC50 at 72 h was 6.3 µM.
Work on CC(C)(C)OC(=O)N1CCC(OC(=O)c2ccc(NS(=O)(=O)c3c(Cl)sc(Cl)c3Cl)cc2O)C1 (centres unmarked) [Example 205, tert-Butyl 3-[(2-hydroxy-4-{[(2,4,5-trichloro-3-thienyl)sulfonyl]amino}benzoyl)oxy]pyrrolidine-1-carboxylate] yielded an IC50 at 72 h of 17.7 µM.
O=C(OCC1CCOC1)c1ccc(NS(=O)(=O)c2cc(Cl)c(Cl)s2)cc1O (centres unmarked) [Example 75, Tetrahydrofuran-3-ylmethyl 4-{[(4,5-dichloro-2-thienyl)sulfonyl]amino}-2-hydroxybenzoate] gave an IC50 at 72 h of 25.3 µM.
With O=C(OCCCN1CCOCC1)c1ccc(NS(=O)(=O)c2cccc(-c3cc(F)ccc3O)c2)cc1O [Example 160, 3-Morpholin-4-ylpropyl 4-{[(5′-fluoro-2′-hydroxybiphenyl-3-yl)sulfonyl]amino}-2-hydroxybenzoate trifluoroacetate] the IC50 at 72 h was 3.6 µM.
